Experimental findings from patent US20230263808A1 (UNIVERSITY OF FLORIDA RESEARCH FOUNDATION, INCORPORATED, priority 2020, published 2023) are described below.

Molecules are shown by their SMILES.

One data set addresses T1, androgen receptor (AR) (Homo sapiens, UniProt P10275).
T1 construct: expressed in transfected cells; host or cells: 293T
T1 sequence (P10275 1-920): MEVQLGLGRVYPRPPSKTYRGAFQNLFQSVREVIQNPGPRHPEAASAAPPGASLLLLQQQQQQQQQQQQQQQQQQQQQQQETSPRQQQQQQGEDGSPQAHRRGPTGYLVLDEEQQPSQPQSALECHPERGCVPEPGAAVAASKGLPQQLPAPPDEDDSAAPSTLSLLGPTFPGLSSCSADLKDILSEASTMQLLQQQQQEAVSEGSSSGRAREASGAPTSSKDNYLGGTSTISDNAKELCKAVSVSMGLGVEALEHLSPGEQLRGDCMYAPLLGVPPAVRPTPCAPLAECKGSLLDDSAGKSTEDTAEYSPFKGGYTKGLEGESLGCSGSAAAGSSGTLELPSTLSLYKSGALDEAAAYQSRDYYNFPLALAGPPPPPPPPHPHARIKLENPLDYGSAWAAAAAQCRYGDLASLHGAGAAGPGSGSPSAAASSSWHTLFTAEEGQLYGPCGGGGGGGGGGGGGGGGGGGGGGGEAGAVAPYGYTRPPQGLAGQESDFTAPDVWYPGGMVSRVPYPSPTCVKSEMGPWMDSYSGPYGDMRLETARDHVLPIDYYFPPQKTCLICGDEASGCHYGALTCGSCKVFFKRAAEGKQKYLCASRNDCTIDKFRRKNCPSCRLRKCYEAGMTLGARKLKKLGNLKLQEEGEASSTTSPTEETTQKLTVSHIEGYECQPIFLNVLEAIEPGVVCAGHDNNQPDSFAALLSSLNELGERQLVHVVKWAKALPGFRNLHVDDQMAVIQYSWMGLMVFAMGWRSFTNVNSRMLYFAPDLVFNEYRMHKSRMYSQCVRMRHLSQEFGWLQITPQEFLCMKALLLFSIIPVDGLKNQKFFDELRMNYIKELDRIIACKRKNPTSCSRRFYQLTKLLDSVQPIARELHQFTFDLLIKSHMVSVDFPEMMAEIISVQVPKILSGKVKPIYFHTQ
Kind of data set: AR-luciferase assay in 293T cells. The format is cell-based. How it is done: For native gene expression, C2C12 myotubes were treated compounds for 24 h. For MMTV-Luc assay, steroid-deprived 293T cells were co-transfected with a GR expression plasmid and an MMTV-driven luciferase reporter plasmid. The next day, cells were treated with compounds for 24 hrs. Each point represents the average of triplicate biological measurements for a separate compound. B) AR Luc assay development. Steroid-deprived 293T cells were transfected with AR expression plasmid and an ARR3-tk-driven luciferase reporter. The next day cells were treated with increasing doses of the indicated compounds. Data shown are mean+SD of triplicate measurements. C) AR-Luc assay identified 5 GCs with some AR activity.
For inclusion in the statistical analyses, assays were required to show high reproducibility, with a Pearson correlation >0.8 between different experiments (FIG. 2, H; FIG. 9, A). […] We also analyzed the effects of the compounds on expression of Fkbp5, Pdk4, and Klf15 mRNAs in C2C12 myotubes, and MMTV-luciferase and androgen receptor (AR) driven-luciferase activity in 293T cells. […] We also analyzed the effects of compounds on nuclear translocation of GR using a quantitative HTS approach (Htun et al., Proc. Natl. Acad. Sci. USA 93, 4845-4850, 1996). […]

Data set [1] deals with IL-1β-induced IL-6 secretion by A549 lung cells. Kind of data set: IL-1β-induced IL-6 secretion by A549 lung cells (AlphaLISA). The format is cell-based.
A short description of data set [2]: Lactate-tolerance test (rate of glucose production). The format is in vivo, C57BL/6 male mice. Particulars: after overnight fast; 10 mg/kg Dex or SR16024, 50 mg/kg SR11466. The text has this:
A) The effects of all tested compounds on IL-1β-induced IL-6 production (x-axes) versus GR interaction with the indicated peptides. B-C) The effects of all tested compounds on the indicated GC-regulated phenotypes (x-axes) versus GR interaction with the CHD9_1023 and CENPR_1 peptides (y-axes). D-F) COC plots. Each point represents the Pearson correlation coefficient, r, between a distinct gene expression or GR-peptide interaction assay with assays indicated on the x and y axes. G) The effects of all tested compounds on IL-1β-induced IL-6 production (y-axes) versus insulin-induced protein synthesis. […] IL-β-induced IL-6 production by A549 cells treated with the indicated compounds was compared by AlphaLISA. […] Mice in panel K were subjected to a lactate-tolerance test (LTT).
We were also interested in whether the compounds would show dissociation between Glut4 translocation in skeletal muscle and gluconeogenesis in the liver, but enhanced glucose production is typically studied after weeks or months of GC treatment. However, we reasoned that an overnight fast should enable detection of effects after a single dose. […] Thus, profiling effects of GCs in the physiological context of nutrient deprivation allowed the discovery of two new types of glucocorticoids with improved profiles in skeletal muscle.

As for `CC#CC1(O)CCC2C3CCc4cc(C(=O)Nc5cccnc5C)ccc4C3C(OCc3ccc(Cl)cc3)CC21C` (stereo not shown) [SR16025], at androgen receptor (AR), the “AR activity” value was “weak AR antagonist”.

With `C=CCOC1CC2(C)C(CCC2(O)C#CC)C2CCc3cc(C(=O)Nc4cccnc4C)ccc3C12` (stereo not shown) [SR11466], the “inhibition of IL-6 production in combination with RU486” value in data set [1] (A549 cells, with RU486) is “reversed by RU486”. In data set [1] (A549 lung cells, read-out: potency for inhibiting IL-1β-induced IL-6 secretion), the IC50 is 4 nM. Further, the “rate of glucose production in lactate tolerance test” value in data set [2] is listed as “increased the rate of glucose production”.
